We go through 1 compound from US8541377B2, “Optimized dengue virus entry inhibitory peptide (DN81)” (Florida Gulf Coast University, priority 2007, dated 2013).

This data set relates to LLCMK-2 cells. The note with it: confluent LLCMK-2 monolayers; concentration ranges that showed viral inhibition; vs medium only controls, p>0.05; FIG. 4. The method, then:
The cytotoxicity of the chemistries was measured by monitoring mitochondrial reductase activity using the TACS™ MTT cell proliferation assay (R&D Systems, Inc., Minneapolis, Minn.) according to the manufacturer's instructions. Dilutions of chemistries in serum-free DMEM were added to confluent monolayers of LLCMK-2 cells in 96-well plates for 1 h at 37° C., similar to the focus forming inhibition assays, and subsequently incubated at 37° C. with 5% (v/v) CO2 for 24 h. Absorbance at 560 nm was measured using a Tecan GeniosPro plate reader (Tecan US, Durham, N.C.).

Structures are written as SMILES. Residues, ends and D or L forms follow the SMILES beside them.

Take `CSCC[C@H](NC(=O)[C@H](Cc1c[nH]c2ccccc12)NC(=O)[C@@H](N)CCCNC(=N)N)C(=O)N[C@H](C(=O)N[C@@H](Cc1c[nH]c2ccccc12)C(=O)N[C@@H](CCCNC(=N)N)C(=O)N[C@@H](Cc1c[nH]cn1)C(=O)N[C@@H](Cc1c[nH]c2ccccc12)C(=O)N[C@@H](Cc1ccccc1)C(=O)N[C@@H](Cc1c[nH]cn1)C(=O)N[C@@H](CCCNC(=N)N)C(=O)N[C@@H](CC(C)C)C(=O)N[C@@H](CCCNC(=N)N)C(=O)N[C@@H](CC(C)C)C(=O)N1CCC[C@H]1C(=O)N[C@@H](Cc1ccc(O)cc1)C(=O)N[C@@H](CC(N)=O)C(=O)N1CCC[C@H]1C(=O)NCC(=O)N[C@@H](CCCCN)C(=O)N[C@@H](CC(N)=O)C(=O)N[C@@H](CCCCN)C(=O)N[C@@H](CCC(N)=O)C(=O)N[C@@H](CC(N)=O)C(=O)N[C@@H](CCC(N)=O)C(=O)N[C@@H](CCC(N)=O)C(=O)N[C@@H](Cc1c[nH]c2ccccc12)C(=O)N1CCC[C@H]1C(=O)O)C(C)C` [DN81] (H-RWMVWRHWFHRLRLPYNPGKNKQNQQWP-OH): the “toxicity (mitochondrial reductase activity of target cells)” value is on record as “not due to toxicity”.
